Experimental data as given in publication PMC9320114 (Molecules, 2022).
Like-named read-outs stand apart in the source and are kept apart here.

Key:
[1] = target: T1, murine acetylcholinesterase (mAChE) (Mus musculus, UniProt P21836); experiment: biochemical; assay type: biochemical; conditions: for mAChE RA (%) / RA (mAChE, 10 µM) / remaining activity at 10 µM: residual activity at 10 µM; for RA (mAChE, 10 µM): Figure 1; for remaining activity at 10 µM: read-out: mAChE RA (%)
T1 sequence (P21836 32-614): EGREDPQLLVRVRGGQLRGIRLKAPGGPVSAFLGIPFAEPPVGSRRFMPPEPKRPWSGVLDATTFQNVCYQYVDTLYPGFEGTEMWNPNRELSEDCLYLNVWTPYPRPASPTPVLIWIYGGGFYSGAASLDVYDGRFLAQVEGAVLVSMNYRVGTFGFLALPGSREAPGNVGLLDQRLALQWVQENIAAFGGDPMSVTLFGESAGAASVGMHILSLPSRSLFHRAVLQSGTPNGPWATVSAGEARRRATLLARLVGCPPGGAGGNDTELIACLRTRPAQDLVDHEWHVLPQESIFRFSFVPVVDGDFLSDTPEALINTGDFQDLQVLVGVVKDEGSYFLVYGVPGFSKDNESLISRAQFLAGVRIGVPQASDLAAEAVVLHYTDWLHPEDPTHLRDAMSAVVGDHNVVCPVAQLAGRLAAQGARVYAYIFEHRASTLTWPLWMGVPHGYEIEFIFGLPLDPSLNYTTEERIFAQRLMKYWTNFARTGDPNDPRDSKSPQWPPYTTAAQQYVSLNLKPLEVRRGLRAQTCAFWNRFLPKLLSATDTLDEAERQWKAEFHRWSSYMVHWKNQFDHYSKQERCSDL
Method: (§1) Enzyme solutions were prepared by diluting the concentrated enzyme stock solutions (4.6 mg/mL in 10 mM MES-NaOH buffer, pH 6.5) in a sodium phosphate-buffered solution (0.1 M, pH 8.0). […] The final organic solvent (DMSO) content was always 1% (v/v). Reactions were initiated by adding the substrate to the enzyme and inhibitor, which were preincubated for 5 min. […] To determine the blank value (b), the enzyme solution was replaced by a phosphate-buffered solution. The initial velocity (v) was calculated from the slope of the linear trend obtained, with each measurement performed in triplicate. The inhibitory potencies were expressed as RA=(vi − b)/(vo − b), where vi is the velocity in the presence of the test compounds and vo is the control velocity in the presence of DMSO. Seven different concentrations of each compound were used for the IC50 measurements. IC50 values were obtained by plotting the residual enzyme activities against the applied inhibitor concentrations, fitting the experimental data to the 4-parameter Hill equation:(1) Y=Bottom+(Top−Bottom)/1+10^((LogIC50−X)×Hill Slope) where X is the logarithm of the inhibitor concentration, and Y is the residual activity. GraphPad Prism 8.2.0 (GraphPad Software, San Diego, CA, USA) was used for the fitting procedure.

[2] = target: human butyrylcholinesterase (hBChE) (Homo sapiens, UniProt P06276); experiment: biochemical; assay type: biochemical
Method: as §1

[3] = residual activity at 10 µM; Mini Library screen, Table S1
[4] = residual activity at 10 µM; Table 1; read-out: hBChE RA (%)
[5] = residual activity at 10 µM; Table 4; read-out: hBChE RA (%)

human butyrylcholinesterase (hBChE), sequence (P06276 29-602): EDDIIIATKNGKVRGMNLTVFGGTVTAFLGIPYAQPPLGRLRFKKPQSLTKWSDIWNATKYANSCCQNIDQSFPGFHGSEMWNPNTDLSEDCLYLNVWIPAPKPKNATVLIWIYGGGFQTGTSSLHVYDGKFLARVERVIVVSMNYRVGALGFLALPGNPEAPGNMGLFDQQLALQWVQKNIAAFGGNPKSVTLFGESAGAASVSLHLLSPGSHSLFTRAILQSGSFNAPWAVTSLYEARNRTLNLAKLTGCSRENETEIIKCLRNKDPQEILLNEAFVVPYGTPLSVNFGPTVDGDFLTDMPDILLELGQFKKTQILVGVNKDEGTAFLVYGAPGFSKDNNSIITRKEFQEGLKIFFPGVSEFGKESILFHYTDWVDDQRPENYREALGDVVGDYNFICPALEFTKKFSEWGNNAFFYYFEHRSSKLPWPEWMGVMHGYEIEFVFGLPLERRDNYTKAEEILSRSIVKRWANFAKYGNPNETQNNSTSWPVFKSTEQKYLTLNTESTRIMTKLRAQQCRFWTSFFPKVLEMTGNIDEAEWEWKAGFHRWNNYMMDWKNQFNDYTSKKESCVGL

SMILES: O=C(OC[C@H]1CCCN1c1ccnc2ncnn12)c1ccc(Oc2ccccc2)nc1 [MS-ML31]
- mAChE RA (%) ([1]; Mini Library screen, Table S1): 89%
- hBChE RA (%) [2, 3]: 84%

SMILES: CCCCc1nc2ccn(Cc3ccccc3)c(=O)c2n1Cc1ccc(-c2ccccc2-c2nnn[nH]2)cc1 [MS-ML03]
- mAChE RA (%) ([1]; Mini Library screen, Table S1): 92%
- hBChE RA (%) [2, 3]: 87%

SMILES: CCCCc1nc2ccn(CC(=O)N3CCCCC3)c(=O)c2n1Cc1ccc(-c2ccccc2S(=O)(=O)NC(=O)OCc2ccccc2)cc1F [MS-ML05]
- mAChE RA (%) ([1]; Mini Library screen, Table S1): 96%
- hBChE RA (%) [2, 3]: 91%

SMILES: CCCCCCN(Cc1ccc(C#Cc2ccc(CCCC)cc2)cc1)c1ccc(O)c(C(=O)O)c1 [MS-ML24]
- IC50 ([1]; Mini Library screen, Table S1): 0.414 ± 0.04 µM
- IC50 ([1]; Table 1, IC50 ± SEM): 0.294 ± 0.025 µM
- RA (mAChE, 10 µM) [1]: 1%
- remaining activity at 10 µM ([1]; Table 1): 1%
- IC50 ([2]; Table 1; IC50 ± SEM; read-out: hBChE IC50): 0.949 ± 0.046 µM
- hBChE RA (%) [2, 3]: 60%
- remaining activity at 10 µM [2, 4]: 9%

SMILES: CCCCCCN(Cc1ccc(C#Cc2ccc(CCCC)cc2)cc1)C(=O)c1ccc(O)c(C(=O)O)c1 [MS-ML25]
- IC50 ([1]; Mini Library screen, Table S1): 0.369 ± 0.055 µM
- IC50 ([1]; Table 1, IC50 ± SEM): 0.485 ± 0.079 µM
- RA (mAChE, 10 µM) [1]: 3%
- remaining activity at 10 µM ([1]; Table 1): 3%
- hBChE RA (%) [2, 3]: 108%
- remaining activity at 10 µM [2, 4]: 55%

SMILES: C1=C(c2ccccc2)CCN(CCCCc2c[nH]c3ccccc23)C1 [MS-ML10]
- mAChE RA (%) ([1]; Mini Library screen, Table S1): 64%
- remaining activity at 10 µM ([1]; Table 4): 64%
- IC50 ([2]; Table 4; IC50 ± SEM; read-out: hBChE IC50): 0.0356 ± 0.0003 µM
- remaining activity at 10 µM [2, 5]: 0%

SMILES: Oc1ccc2[nH]cc(CCCCN3CC=C(c4ccccc4)CC3)c2c1 [MS-ML11]
- mAChE RA (%) ([1]; Mini Library screen, Table S1): 82%
- remaining activity at 10 µM ([1]; Table 4): 82%
- IC50 ([2]; read-out: hBChE IC50; Table 4; IC50 ± SEM): 0.0788 ± 0.0103 µM
- remaining activity at 10 µM [2, 5]: 0%

SMILES: CCCCCCN(Cc1ccc(C#Cc2ccc(CCCC)cc2)cc1)c1ccc(F)c(C(=O)O)c1 [MS-ML26]
- IC50 ([1]; Mini Library screen, Table S1): 0.359 ± 0.039 µM
- IC50 ([1]; Table 1, IC50 ± SEM): 0.275 ± 0.06 µM
- RA (mAChE, 10 µM) [1]: 8%
- remaining activity at 10 µM ([1]; Table 1): 8%
- hBChE RA (%) [2, 3]: 68%
- remaining activity at 10 µM [2, 4]: 57%

SMILES: O=C(Nc1ccc(Oc2ccncc2)cc1)Nc1cc(C(F)(F)F)ccc1-n1cncn1 [MS-ML80]
- mAChE RA (%) ([1]; Mini Library screen, Table S1): 95%
- hBChE RA (%) [2, 3]: 73%
